Measurements: the CheMixHub viscosity set

Test: xn = mol fraction of the nth substance listed

COC(C)=O + CN1CCCC1=O
viscosity [mPa·s], 101 kPa
Conditions	x2 = 0.0845	x2 = 0.172	x2 = 0.2626	x2 = 0.3565	x2 = 0.4539	x2 = 0.5549	x2 = 0.6598	x2 = 0.7688	x2 = 0.8821
303.15 K	0.52	0.671	0.818	0.958	1.096	1.22	1.326	1.424	1.502
308.15 K	0.488	0.619	0.749	0.873	0.991	1.102	1.195	1.284	1.358
313.15 K	0.445	0.571	0.693	0.811	0.923	1.028	1.118	1.202	1.271
318.15 K	0.412	0.526	0.638	0.743	0.846	0.939	1.022	1.098	1.163

CCC(C)=O + c1ccccc1
Conditions	viscosity [mPa·s]
293.15 K, 101 kPa, x1 = 0.2	0.569
293.15 K, 101 kPa, x1 = 0.4	0.511
293.15 K, 101 kPa, x1 = 0.5	0.487
293.15 K, 101 kPa, x1 = 0.6	0.471
293.15 K, 101 kPa, x1 = 0.8	0.435
298 K, 101.33 kPa, x2 = 0.1513	0.3919
298 K, 101.33 kPa, x2 = 0.2663	0.4141
298 K, 101.33 kPa, x2 = 0.2941	0.4175
298 K, 101.33 kPa, x2 = 0.4321	0.4408
298 K, 101.33 kPa, x2 = 0.5597	0.4674
298 K, 101.33 kPa, x2 = 0.6057	0.4775
298 K, 101.33 kPa, x2 = 0.7302	0.5097
298 K, 101.33 kPa, x2 = 0.8777	0.5571
298.15 K, 101 kPa, x2 = 0.106	0.4072
298.15 K, 101 kPa, x2 = 0.197	0.4173
298.15 K, 101 kPa, x2 = 0.3	0.4324
298.15 K, 101 kPa, x2 = 0.4	0.4487
298.15 K, 101 kPa, x2 = 0.5	0.4672
298.15 K, 101 kPa, x2 = 0.615	0.4908
298.15 K, 101 kPa, x2 = 0.694	0.508
298.15 K, 101 kPa, x2 = 0.793	0.5355
298.15 K, 101 kPa, x2 = 0.895	0.5683
299.15 K, 101.3 kPa, x2 = 0.098	0.41
299.15 K, 101.3 kPa, x2 = 0.198	0.425
299.15 K, 101.3 kPa, x2 = 0.298	0.443
299.15 K, 101.3 kPa, x2 = 0.398	0.455
299.15 K, 101.3 kPa, x2 = 0.498	0.474
299.15 K, 101.3 kPa, x2 = 0.599	0.497
299.15 K, 101.3 kPa, x2 = 0.699	0.519
299.15 K, 101.3 kPa, x2 = 0.799	0.546
299.15 K, 101.3 kPa, x2 = 0.899	0.584
303.15 K, 101 kPa, x1 = 0.1023	0.538
303.15 K, 101 kPa, x1 = 0.2	0.498
303.15 K, 101 kPa, x1 = 0.2042	0.509
303.15 K, 101 kPa, x1 = 0.395	0.467
303.15 K, 101 kPa, x1 = 0.4	0.454
303.15 K, 101 kPa, x1 = 0.5	0.434
303.15 K, 101 kPa, x1 = 0.5129	0.444
303.15 K, 101 kPa, x1 = 0.6	0.42
303.15 K, 101 kPa, x1 = 0.6822	0.42
303.15 K, 101 kPa, x1 = 0.8	0.391
303.15 K, 101 kPa, x1 = 0.853	0.396
307.35 K, 101.33 kPa, x1 = 0.0925	0.501
307.35 K, 101.33 kPa, x1 = 0.2405	0.462
307.35 K, 101.33 kPa, x1 = 0.3178	0.446
307.35 K, 101.33 kPa, x1 = 0.4477	0.424
307.35 K, 101.33 kPa, x1 = 0.5084	0.41
307.35 K, 101.33 kPa, x1 = 0.616	0.394
307.35 K, 101.33 kPa, x1 = 0.7356	0.378
308.15 K, 101 kPa, x1 = 0.2	0.471
308.15 K, 101 kPa, x1 = 0.4	0.431
308.15 K, 101 kPa, x1 = 0.5	0.414
308.15 K, 101 kPa, x1 = 0.6	0.401
308.15 K, 101 kPa, x1 = 0.8	0.373
318.15 K, 101 kPa, x1 = 0.2	0.421
318.15 K, 101 kPa, x1 = 0.4	0.388
318.15 K, 101 kPa, x1 = 0.5	0.373
318.15 K, 101 kPa, x1 = 0.6	0.362
318.15 K, 101 kPa, x1 = 0.8	0.339

COC(C)=O + CCO
298.15 K, 101.33 kPa
Conditions	viscosity [mPa·s]
x1 = 0.1146	0.833
x1 = 0.2045	0.695
x1 = 0.3207	0.574
x1 = 0.4245	0.506
x1 = 0.5004	0.467
x1 = 0.6077	0.438
x1 = 0.7989	0.399
x1 = 0.8802	0.39
